Source: ChEMBL document CHEMBL1201862, “PubChem BioAssay data set” (2004)
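Following 48 hours of exposure in 96-well plates, responses at five concentrations were used to interpolate endpoints linearly. GI50 marks 50% less growth.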 Calls of active or inactive are those of the source. Rule as the data show it: active = GI50 up to about 1.1 µM and inactive = higher.

Legend:
Assay in all cases: NCI anticancer screen, dose series, 48 h
786-0 = test system: 786-0
CAKI-1 = test system: CAKI-1
EKVX = test system: EKVX
HCC 2998 = test system: HCC 2998
HL-60 = test system: HL-60
HOP-62 = test system: HOP-62
Hs-578T = test system: Hs-578T
NCI/ADR-RES = test system: NCI/ADR-RES
OVCAR-3 = test system: OVCAR-3
OVCAR-8 = test system: OVCAR-8
PC-3 = test system: PC-3
SF-268 = test system: SF-268
SK-MEL-28 = test system: SK-MEL-28
SK-OV-3 = test system: SK-OV-3
T47D = test system: T47D
SN12C = test system: SN12C
UO-31 = test system: UO-31

| SMILES | GI50 (786-0) | GI50 (CAKI-1) | GI50 (EKVX) | GI50 (HCC 2998) | GI50 (HL-60) | GI50 (HOP-62) | GI50 (Hs-578T) | GI50 (NCI/ADR-RES) | GI50 (OVCAR-3) | GI50 (OVCAR-8) | GI50 (PC-3) | GI50 (SF-268) | GI50 (SK-MEL-28) | GI50 (SK-OV-3) | GI50 (T47D) | GI50 (SN12C) | GI50 (UO-31) |
| --- | --- | --- | --- | --- | --- | --- | --- | --- | --- | --- | --- | --- | --- | --- | --- | --- | --- |
| COc1cccc(OCC(=N/NC(=O)c2ccncc2)/N=C/c2cccnc2)c1 | > 100 µM (inactive) | > 100 µM (inactive) | > 100 µM (inactive) | > 100 µM (inactive) | > 100 µM (inactive) | > 100 µM (inactive) | > 100 µM (inactive) | > 100 µM (inactive) | > 100 µM (inactive) | 86.3 µM (inactive) | > 100 µM (inactive) | > 100 µM (inactive) | > 100 µM (inactive) | > 100 µM (inactive) | > 100 µM (inactive) | – | – |
| N#C/C(=C\c1cn(Cc2ccccc2)c2ccccc12)c1nn(-c2ccccc2)c(N)c1C#N | 7.83 µM (inactive) | 17.4 µM (inactive) | 8.07 µM (inactive) | – | 41.5 µM (inactive) | – | 25.6 µM (inactive) | 17.4 µM (inactive) | 18.2 µM (inactive) | 10.1 µM (inactive) | 8.22 µM (inactive) | 24.9 µM (inactive) | 27.7 µM (inactive) | 15.2 µM (inactive) | 1.33 µM (inactive) | 15.3 µM (inactive) | 12.9 µM (inactive) |
| CC[C@@]1(C)CCC2c3ccc(O)cc3CC[C@H]2C1C (stereo not given in full) | 16.2 µM (inactive) | 21.2 µM (inactive) | 18.2 µM (inactive) | 13.7 µM (inactive) | 10.8 µM (inactive) | 18.7 µM (inactive) | 18.8 µM (inactive) | 18.8 µM (inactive) | 20.6 µM (inactive) | 17.7 µM (inactive) | 19.8 µM (inactive) | 15.5 µM (inactive) | 17.8 µM (inactive) | – | 18.1 µM (inactive) | 18.1 µM (inactive) | 16.7 µM (inactive) |
| CCCCCCCC/C=C\CCCCCCC(F)C(=O)O (stereo not given) | > 12.5 µM (inactive) | > 12.5 µM (inactive) | 2.25 µM (inactive) | > 12.5 µM (inactive) | > 12.5 µM (inactive) | > 12.5 µM (inactive) | > 12.5 µM (inactive) | > 12.5 µM (inactive) | > 12.5 µM (inactive) | > 12.5 µM (inactive) | > 12.5 µM (inactive) | > 12.5 µM (inactive) | > 12.5 µM (inactive) | > 12.5 µM (inactive) | > 12.5 µM (inactive) | > 12.5 µM (inactive) | > 12.5 µM (inactive) |
| CS(=O)(=O)CCC1CCC(=O)O1 (stereo not given) | > 100 µM (inactive) | > 100 µM (inactive) | > 100 µM (inactive) | > 100 µM (inactive) | > 100 µM (inactive) | 40.5 µM (inactive) | 49 µM (inactive) | > 100 µM (inactive) | > 100 µM (inactive) | > 100 µM (inactive) | > 100 µM (inactive) | 51.9 µM (inactive) | > 100 µM (inactive) | – | > 100 µM (inactive) | 68.1 µM (inactive) | > 100 µM (inactive) |
| C[C@]12CC[C@@H]3c4ccc(O)cc4CC[C@H]3[C@@H]1CC[C@@H]2OC(=O)CCc1ccccc1 | 34 µM (inactive) | 18.4 µM (inactive) | 10.8 µM (inactive) | 19.6 µM (inactive) | 20.1 µM (inactive) | 22.1 µM (inactive) | 5.14 µM (inactive) | 16.6 µM (inactive) | 20.5 µM (inactive) | 22.8 µM (inactive) | 18.3 µM (inactive) | 17.8 µM (inactive) | 20.1 µM (inactive) | 15.5 µM (inactive) | 17.7 µM (inactive) | 22.9 µM (inactive) | 16 µM (inactive) |
| Nc1ncnc2c1ncn2C1C=CC(COS(N)(=O)=O)C1 (stereo not given) | 18.5 µM (inactive) | 3.28 µM (inactive) | > 100 µM (inactive) | 35.7 µM (inactive) | 4.19 µM (inactive) | 16.8 µM (inactive) | 15.6 µM (inactive) | 66.2 µM (inactive) | 31 µM (inactive) | 13.1 µM (inactive) | 12 µM (inactive) | 33.7 µM (inactive) | 20.5 µM (inactive) | 52.7 µM (inactive) | 8.81 µM (inactive) | 8.2 µM (inactive) | 79.1 µM (inactive) |
| Cc1nnc2n1-c1ccccc1-c1[nH]c3ccccc3c1C2 | 83.8 µM (inactive) | 51.1 µM (inactive) | > 100 µM (inactive) | – | 21.2 µM (inactive) | 58.9 µM (inactive) | > 100 µM (inactive) | 69.8 µM (inactive) | 76.6 µM (inactive) | 38.1 µM (inactive) | 46.1 µM (inactive) | > 100 µM (inactive) | 73.5 µM (inactive) | > 100 µM (inactive) | > 100 µM (inactive) | > 100 µM (inactive) | 28.8 µM (inactive) |
| Nc1ncnc2ccc(Sc3ccc4ncnc(N)c4c3)cc12 | > 100 µM (inactive) | > 100 µM (inactive) | > 100 µM (inactive) | – | > 100 µM (inactive) | > 100 µM (inactive) | > 100 µM (inactive) | > 100 µM (inactive) | > 100 µM (inactive) | > 100 µM (inactive) | > 100 µM (inactive) | > 100 µM (inactive) | > 100 µM (inactive) | > 100 µM (inactive) | > 100 µM (inactive) | > 100 µM (inactive) | > 100 µM (inactive) |
| COc1ccc2c(O)c(S(=O)(=O)c3ccc(C)cc3)c(=O)oc2c1OC | > 100 µM (inactive) | > 100 µM (inactive) | > 100 µM (inactive) | > 100 µM (inactive) | > 100 µM (inactive) | – | > 100 µM (inactive) | > 100 µM (inactive) | > 100 µM (inactive) | > 100 µM (inactive) | > 100 µM (inactive) | > 100 µM (inactive) | > 100 µM (inactive) | > 100 µM (inactive) | > 100 µM (inactive) | > 100 µM (inactive) | > 100 µM (inactive) |
| COC(=O)C1=COc2c(n(C)c3ccccc23)-c2ccccc21 | > 100 µM (inactive) | > 100 µM (inactive) | > 100 µM (inactive) | – | > 100 µM (inactive) | > 100 µM (inactive) | > 100 µM (inactive) | > 100 µM (inactive) | > 100 µM (inactive) | > 100 µM (inactive) | > 100 µM (inactive) | > 100 µM (inactive) | – | > 100 µM (inactive) | > 100 µM (inactive) | > 100 µM (inactive) | > 100 µM (inactive) |
| NC(=O)CN1CC(C2=C(O)CN(CC(N)=O)C2=O)=CC1=O | > 100 µM (inactive) | > 100 µM (inactive) | > 100 µM (inactive) | > 100 µM (inactive) | > 100 µM (inactive) | > 100 µM (inactive) | > 100 µM (inactive) | > 100 µM (inactive) | > 100 µM (inactive) | > 100 µM (inactive) | > 100 µM (inactive) | > 100 µM (inactive) | > 100 µM (inactive) | > 100 µM (inactive) | > 100 µM (inactive) | > 100 µM (inactive) | 85.7 µM (inactive) |
| CCN1CC2(COC)C(O)CC(OC)C34C5CC6(O)C(OC)C=C(C5C6OC(=O)c5ccc(OC)c(OC)c5)C(C(OC)C23)C14 (stereo not given) | > 7.5 µM (inactive) | > 7.5 µM (inactive) | > 7.5 µM (inactive) | > 7.5 µM (inactive) | > 7.5 µM (inactive) | – | > 7.5 µM (inactive) | > 7.5 µM (inactive) | – | > 7.5 µM (inactive) | > 7.5 µM (inactive) | > 7.5 µM (inactive) | > 7.5 µM (inactive) | > 7.5 µM (inactive) | > 7.5 µM (inactive) | > 7.5 µM (inactive) | > 7.5 µM (inactive) |
| COc1cc(OC)cc(Oc2nc3ccccc3nc2C(=O)O)c1 | > 100 µM (inactive) | > 100 µM (inactive) | > 100 µM (inactive) | > 100 µM (inactive) | > 100 µM (inactive) | > 100 µM (inactive) | > 100 µM (inactive) | > 100 µM (inactive) | > 100 µM (inactive) | > 100 µM (inactive) | > 100 µM (inactive) | > 100 µM (inactive) | > 100 µM (inactive) | > 100 µM (inactive) | > 100 µM (inactive) | – | > 100 µM (inactive) |
| CC(C)CC1C(=O)NCCC(NC(=O)C(N)Cc2ccc(O)cc2)C(=O)NC(Cc2ccccc2)C(=O)NC(Cc2ccccc2)NC1=O (stereo not given) | > 100 µM (inactive) | > 100 µM (inactive) | > 100 µM (inactive) | > 100 µM (inactive) | > 100 µM (inactive) | > 100 µM (inactive) | 0.885 µM (active) | > 100 µM (inactive) | > 100 µM (inactive) | > 100 µM (inactive) | > 100 µM (inactive) | > 100 µM (inactive) | > 100 µM (inactive) | > 100 µM (inactive) | > 100 µM (inactive) | > 100 µM (inactive) | > 100 µM (inactive) |
| CCC1c2[nH]c3ccccc3c2C[C@H]2C(=O)NC(Cc3ccccc3)C(=O)N12 (stereo not given in full) | 36 µM (inactive) | 35.4 µM (inactive) | 30.3 µM (inactive) | 26 µM (inactive) | 20.7 µM (inactive) | 34.8 µM (inactive) | 12.4 µM (inactive) | 29.8 µM (inactive) | 31 µM (inactive) | 34.5 µM (inactive) | 20.8 µM (inactive) | 27.2 µM (inactive) | 40 µM (inactive) | 44.7 µM (inactive) | 22 µM (inactive) | 28.5 µM (inactive) | 30.8 µM (inactive) |
| OCc1ccccc1O[C@H]1O[C@H](CO)[C@@H](O)[C@H](O)[C@H]1O | > 100 µM (inactive) | > 100 µM (inactive) | > 100 µM (inactive) | > 100 µM (inactive) | > 100 µM (inactive) | > 100 µM (inactive) | > 100 µM (inactive) | > 100 µM (inactive) | > 100 µM (inactive) | > 100 µM (inactive) | > 100 µM (inactive) | > 100 µM (inactive) | > 100 µM (inactive) | > 100 µM (inactive) | > 100 µM (inactive) | > 100 µM (inactive) | > 100 µM (inactive) |
